{"source": "patent US10259776B2", "about": "“Branched 3-phenylpropionic acid derivatives and their use” (BAYER INTELLECTUAL PROPERTY GMBH, priority 2011, dated 2019)"}
{"target": "sGC in the CHO reporter cell (Rattus norvegicus (Rat), UniProt P20595)", "sequence (P20595 whole entry)": "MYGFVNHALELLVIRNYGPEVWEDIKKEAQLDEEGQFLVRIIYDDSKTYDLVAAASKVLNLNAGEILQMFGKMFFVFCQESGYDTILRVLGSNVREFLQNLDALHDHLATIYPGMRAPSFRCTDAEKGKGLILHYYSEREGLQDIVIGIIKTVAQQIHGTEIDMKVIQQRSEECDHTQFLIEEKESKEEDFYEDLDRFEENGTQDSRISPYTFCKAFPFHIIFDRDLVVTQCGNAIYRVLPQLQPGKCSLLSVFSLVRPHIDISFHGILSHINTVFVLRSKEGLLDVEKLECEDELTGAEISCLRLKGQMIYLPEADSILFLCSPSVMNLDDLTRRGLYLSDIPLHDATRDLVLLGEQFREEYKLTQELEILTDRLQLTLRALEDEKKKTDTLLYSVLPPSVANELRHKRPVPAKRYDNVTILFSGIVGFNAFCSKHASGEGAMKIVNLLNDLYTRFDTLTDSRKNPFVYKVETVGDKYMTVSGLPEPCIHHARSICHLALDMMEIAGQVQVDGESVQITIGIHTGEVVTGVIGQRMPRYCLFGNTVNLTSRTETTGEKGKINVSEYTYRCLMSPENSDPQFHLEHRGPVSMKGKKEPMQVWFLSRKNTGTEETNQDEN", "sequence (P19686 whole entry partner)": "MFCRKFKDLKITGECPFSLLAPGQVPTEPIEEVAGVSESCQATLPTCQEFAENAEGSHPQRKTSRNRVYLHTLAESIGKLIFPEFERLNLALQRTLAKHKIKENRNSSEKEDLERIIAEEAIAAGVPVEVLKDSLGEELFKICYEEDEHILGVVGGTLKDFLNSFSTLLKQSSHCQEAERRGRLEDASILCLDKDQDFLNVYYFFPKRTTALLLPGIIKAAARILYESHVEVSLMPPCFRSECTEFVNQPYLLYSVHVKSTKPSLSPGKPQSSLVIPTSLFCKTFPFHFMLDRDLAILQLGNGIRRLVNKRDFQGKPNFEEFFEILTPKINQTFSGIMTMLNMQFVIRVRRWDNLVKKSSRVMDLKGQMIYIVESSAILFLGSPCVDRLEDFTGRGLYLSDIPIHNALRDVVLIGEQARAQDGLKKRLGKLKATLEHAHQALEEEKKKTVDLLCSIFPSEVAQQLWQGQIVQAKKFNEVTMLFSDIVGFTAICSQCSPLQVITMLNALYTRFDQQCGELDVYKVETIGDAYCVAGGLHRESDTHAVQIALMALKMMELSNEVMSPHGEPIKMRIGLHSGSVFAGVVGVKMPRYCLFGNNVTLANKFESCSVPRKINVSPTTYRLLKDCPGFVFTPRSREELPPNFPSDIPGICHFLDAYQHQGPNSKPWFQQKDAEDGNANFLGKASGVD", "assay": "Action at a recombinant guanylate cyclase reporter cell line", "assay_type": "cell-based", "conditions": "CHO reporter cell in vitro", "method": "The cellular action of the compounds according to the invention is determined at a recombinant guanylate cyclase reporter cell line, as described in F. Wunder et al., Anal. Biochem. 339, 104-112 (2005).", "units": {"MEC (minimum effective concentration), sGC-activating activity in the CHO reporter cell": "nM"}}
{"smiles": "CC(C)C(C)(CC(=O)O)c1ccc(Cl)c(NC(=O)[C@H](c2ccc(Cl)cc2)[C@@H](C)C(F)(F)F)c1", "note": "(single isomer, unassigned) [Example 3]", "MEC (minimum effective concentration), sGC-activating activity in the CHO reporter cell": 0.3}
{"smiles": "CC(C)C(C)(CC(=O)O)c1ccc(Cl)c(NC(=O)[C@H](c2ccc(Cl)cc2)[C@@H](C)C(F)(F)F)c1", "note": "(single isomer, unassigned) [Example 4]", "MEC (minimum effective concentration), sGC-activating activity in the CHO reporter cell": 3}
{"smiles": "C[C@H]([C@H](C(=O)Nc1cc(C(C)(CC(=O)O)C2CCC2)ccc1Cl)c1ccc(Cl)cc1)C(F)(F)F", "note": "(single isomer, unassigned) [Example 5]", "MEC (minimum effective concentration), sGC-activating activity in the CHO reporter cell": 0.3}
{"smiles": "C[C@H]([C@H](C(=O)Nc1cc(C(C)(CC(=O)O)C2CCC2)ccc1Cl)c1ccc(Cl)cc1)C(F)(F)F", "note": "(single isomer, unassigned) [Example 6]", "MEC (minimum effective concentration), sGC-activating activity in the CHO reporter cell": 1}
{"smiles": "C[C@H]([C@H](C(=O)Nc1cc(C(CC(=O)O)C2(C)CC2)ccc1Cl)c1ccc(Cl)cc1)C(F)(F)F", "note": "(single isomer, unassigned) [Example 26]", "MEC (minimum effective concentration), sGC-activating activity in the CHO reporter cell": 10}
{"smiles": "C[C@H]([C@H](C(=O)Nc1cc(C(CC(=O)O)CC2CC2)ccc1Cl)c1ccc(Cl)cc1)C(F)(F)F", "note": "(single isomer, unassigned) [Example 35]", "MEC (minimum effective concentration), sGC-activating activity in the CHO reporter cell": 0.3}
{"smiles": "C[C@H]([C@H](C(=O)Nc1cc(C(CC(=O)O)CC2CC2)ccc1Cl)c1ccc(Cl)cc1)C(F)(F)F", "note": "(single isomer, unassigned) [Example 36]", "MEC (minimum effective concentration), sGC-activating activity in the CHO reporter cell": 3}
{"smiles": "CC(C)C(CC(=O)O)c1ccc(Cl)c(NC(=O)[C@H](c2ccc(Cl)cc2)[C@@H](C)C(F)(F)F)c1", "note": "(single isomer, unassigned; (+)) [Example 1]", "MEC (minimum effective concentration), sGC-activating activity in the CHO reporter cell": 3}
{"smiles": "CC(C)C(CC(=O)O)c1ccc(Cl)c(NC(=O)[C@H](c2ccc(Cl)cc2)[C@@H](C)C(F)(F)F)c1", "note": "(single isomer, unassigned; (+)) [Example 2]", "MEC (minimum effective concentration), sGC-activating activity in the CHO reporter cell": 6.5}
{"smiles": "C[C@H]([C@H](C(=O)Nc1cc(C(CC(=O)O)C2CCC2)ccc1Cl)c1ccc(Cl)cc1)C(F)(F)F", "note": "(single isomer, unassigned; (+)) [Example 33]", "MEC (minimum effective concentration), sGC-activating activity in the CHO reporter cell": 1}
{"smiles": "C[C@H]([C@H](C(=O)Nc1cc(C(CC(=O)O)C2CCC2)ccc1Cl)c1ccc(Cl)cc1)C(F)(F)F", "note": "(single isomer, unassigned; (+)) [Example 34]", "MEC (minimum effective concentration), sGC-activating activity in the CHO reporter cell": 10}
{"smiles": "C[C@H]([C@H](C(=O)Nc1cc(C(C)(CC(=O)O)C2CC2)ccc1Cl)c1ccc(Cl)cc1)C(F)(F)F", "note": "(some centres unmarked) [Example 7]", "MEC (minimum effective concentration), sGC-activating activity in the CHO reporter cell": 300}
{"smiles": "CCc1ccc([C@@H](C(=O)Nc2cc(C(CC(=O)O)C(C)C)ccc2Cl)[C@@H](C)C(F)(F)F)cc1", "note": "(some centres unmarked) [Example 8]", "MEC (minimum effective concentration), sGC-activating activity in the CHO reporter cell": 1}
{"smiles": "CC(C)C(CC(=O)O)c1ccc(Cl)c(NC(=O)[C@H](c2ccc(Cl)c(F)c2)[C@@H](C)C(F)(F)F)c1", "note": "(some centres unmarked) [Example 9]", "MEC (minimum effective concentration), sGC-activating activity in the CHO reporter cell": 1}
{"smiles": "CC(C)c1ccc([C@@H](C(=O)Nc2cc(C(CC(=O)O)C(C)C)ccc2Cl)[C@@H](C)C(F)(F)F)cc1", "note": "(some centres unmarked) [Example 10]", "MEC (minimum effective concentration), sGC-activating activity in the CHO reporter cell": 0.3}
{"smiles": "CC(C)C(CC(=O)O)c1ccc(Cl)c(NC(=O)[C@H](c2ccc(F)cc2)[C@@H](C)C(F)(F)F)c1", "note": "(some centres unmarked) [Example 11]", "MEC (minimum effective concentration), sGC-activating activity in the CHO reporter cell": 3}
{"smiles": "CC(C)C(CC(=O)O)c1ccc(Cl)c(NC(=O)C(c2ccc(CC(F)(F)F)cc2)C(C)C(F)(F)F)c1", "note": "(centres unmarked) [Example 12]", "MEC (minimum effective concentration), sGC-activating activity in the CHO reporter cell": 1}
{"smiles": "CC(C)C(CC(=O)O)c1ccc(Cl)c(NC(=O)[C@H](c2ccc(C3CC3(F)F)cc2)[C@@H](C)C(F)(F)F)c1", "note": "(some centres unmarked) [Example 13]", "MEC (minimum effective concentration), sGC-activating activity in the CHO reporter cell": 0.3}
{"smiles": "CC(C)C(CC(=O)O)c1ccc(Cl)c(NC(=O)[C@H](c2ccc(C(C)(C)C)cc2)[C@@H](C)C(F)(F)F)c1", "note": "(some centres unmarked) [Example 14]", "MEC (minimum effective concentration), sGC-activating activity in the CHO reporter cell": 0.3}
{"smiles": "COc1cc([C@@H](C(=O)Nc2cc(C(CC(=O)O)C(C)C)ccc2Cl)[C@@H](C)C(F)(F)F)ccc1Cl", "note": "(some centres unmarked) [Example 15]", "MEC (minimum effective concentration), sGC-activating activity in the CHO reporter cell": 3}
{"smiles": "Cc1ccc([C@@H](C(=O)Nc2cc(C(CC(=O)O)C(C)C)ccc2Cl)[C@@H](C)C(F)(F)F)cc1", "note": "(some centres unmarked) [Example 16]", "MEC (minimum effective concentration), sGC-activating activity in the CHO reporter cell": 3}
{"smiles": "Cc1cc([C@@H](C(=O)Nc2cc(C(CC(=O)O)C(C)C)ccc2Cl)[C@@H](C)C(F)(F)F)ccc1Cl", "note": "(some centres unmarked) [Example 17]", "MEC (minimum effective concentration), sGC-activating activity in the CHO reporter cell": 1}
{"smiles": "CC(C)C(CC(=O)O)c1ccc(Cl)c(NC(=O)C(c2ccc(Cl)cc2)C2CCC(F)(F)C2)c1", "note": "(centres unmarked) [Example 18]", "MEC (minimum effective concentration), sGC-activating activity in the CHO reporter cell": 300}
{"smiles": "CC(C)C(CC(=O)O)c1ccc(Cl)c(NC(=O)C(c2ccc(Cl)cc2)C2CCC(F)(F)C2)c1", "note": "(centres unmarked) [Example 19]", "MEC (minimum effective concentration), sGC-activating activity in the CHO reporter cell": 30}
{"smiles": "CC(C)C(CC(=O)O)c1ccc(Cl)c(NC(=O)C(c2ccc(Cl)cc2)C2CCC(F)(F)C2)c1", "note": "(centres unmarked) [Example 20]", "MEC (minimum effective concentration), sGC-activating activity in the CHO reporter cell": 1000}
{"smiles": "CC(C)C(CC(=O)O)c1ccc(Cl)c(NC(=O)C(c2ccc(Cl)cc2)C2CCC(F)(F)C2)c1", "note": "(centres unmarked) [Example 21]", "MEC (minimum effective concentration), sGC-activating activity in the CHO reporter cell": 10}
{"smiles": "C[C@H]([C@H](C(=O)Nc1cc(C(CC(=O)O)C2CC2)ccc1Cl)c1ccc(Cl)cc1)C(F)(F)F", "note": "(some centres unmarked) [Example 23]", "MEC (minimum effective concentration), sGC-activating activity in the CHO reporter cell": 3}
{"smiles": "COC(C)(C)C(CC(=O)O)c1ccc(Cl)c(NC(=O)[C@H](c2ccc(Cl)cc2)[C@@H](C)C(F)(F)F)c1", "note": "(some centres unmarked) [Example 25]", "MEC (minimum effective concentration), sGC-activating activity in the CHO reporter cell": 10}
{"smiles": "C[C@H]([C@H](C(=O)Nc1cc(C(CC(=O)O)C2(F)CC2)ccc1Cl)c1ccc(Cl)cc1)C(F)(F)F", "note": "(some centres unmarked) [Example 27]", "MEC (minimum effective concentration), sGC-activating activity in the CHO reporter cell": 3}
{"smiles": "C[C@H]([C@H](C(=O)Nc1cc(C(CC(=O)O)C2CC(F)(F)C2)ccc1Cl)c1ccc(Cl)cc1)C(F)(F)F", "note": "(some centres unmarked) [Example 28]", "MEC (minimum effective concentration), sGC-activating activity in the CHO reporter cell": 30}
{"smiles": "C[C@H](C(C(=O)Nc1cc(C(CC(=O)O)C2CC2(F)F)ccc1Cl)c1ccc(Cl)cc1)C(F)(F)F", "note": "(stereo partly drawn) [Example 31, 3-(4-Chloro-3-{[(3R)-2-(4-chlorophenyl)-4,4,4-trifluoro-3-methylbutanoyl]amino}phenyl)-3-(2,2-difluorocyclopropyl)propanoic acid]", "MEC (minimum effective concentration), sGC-activating activity in the CHO reporter cell": 3}
{"smiles": "C[C@H](C(C(=O)Nc1cc(C(CC(=O)O)C2CC2(F)F)ccc1Cl)c1ccc(Cl)cc1)C(F)(F)F", "note": "(stereo partly drawn) [Example 32, 3-(4-Chloro-3-{[(3R)-2-(4-chlorophenyl)-4,4,4-trifluoro-3-methylbutanoyl]amino}phenyl)-3-(2,2-difluorocyclopropyl)propanoic acid]", "MEC (minimum effective concentration), sGC-activating activity in the CHO reporter cell": 3}
